# Like-named read-outs stand apart in the source and are kept apart here.
# Columns and labels:
# [1] = system: Enterococcus faecalis S613 HM-334; experiment: MIC, broth microdilution (CLSI); assay type: cell-based
# Description: (§1) The minimum inhibitory concentrations (MICs) of the compounds and control drugs were determined using the broth microdilution method, according to guidelines outlined by the Clinical and Laboratory Standards Institute (CLSI). Enterococci strains were grown aerobically overnight on tryptone soya agar plates at 37° C., afterwards a bacterial solution equivalent to 0.5 McFarland standard was prepared and diluted in tryptone soy broth (TSB) to achieve a bacterial concentration of about 5×10^5 CFU/mL and seeded in 96-well well plates. Compounds and control drugs were added in the first row of the 96-well plates and serially diluted along the plates. Plates were then incubated aerobically at 37° C. for 18-20 hours. MICs reported in Table 1 are the minimum concentration of the compounds/control drugs that could inhibit completely the visual growth of the bacteria.
# (§2) The minimum inhibitory concentrations (MICs) of CAIs were tested against clinical isolates of vancomycin sensitive and vancomycin resistant Enterococci strains as per the guidelines provided by the Clinical and Laboratory Standards Institute (CLSI). The selected strains of Enterococci were streaked on Tryptic Soy Agar (TSA) plates and let grow for 24 hours at 37° C. Afterwards, a bacterial solution equivalent to 0.5 McFarland standard was prepared and diluted in tryptone soy broth (TSB) or brain heart infusion broth (BHIB) to achieve a bacterial concentration of about 5×10^5 CFU/mL and seeded in 96-well well plates. Compounds and control drugs were added in the first row of the 96-well plates and serially diluted along the plates. Plates were then incubated aerobically at 37° C. for 18-20 hours. MICs reported in Table 5 are the minimum concentration of the compounds/control drugs that could inhibit completely the visual growth of the bacteria.
# The minimum inhibitory concentrations (MICs) of CAIs were tested against vancomycin resistant Enterococcus faecalis—S613 HM 334 strain as per the guidelines provided by the Clinical and Laboratory Standards Institute (CLSI). The selected strain was streaked on Tryptic Soy Agar (TSA) plate and let grow for 24 hours at 37° C. […] Compounds and control drugs were added in the first row of the 96-well plates and serially diluted along the plates. Plates were then incubated aerobically at 37° C. for 18-20 hours. MICs reported in table (6) are the minimum concentration of the compounds/control drugs that could inhibit completely the visual growth of the bacteria.
# [2] = system: Bacteroides dorei CL02T12C06 HM-719; experiment: MIC against human normal gut microbiota; assay type: cell-based; conditions: Phocaeicola dorei; Table 3; BHIS broth, anaerobic, 48 hours; read-out: MIC
# Description: (§3) Three different bacterial strains were used in this experiment; Bifidobacterium (anaerobic Gram positive bacteria), Bacteroides (anaerobic Gram negative bacteria) and Lactobacillus (microaerophilic Gram positive bacteria). Bifidobacterium and Bacteroides were first grown for 48 hours at 37° C., anaerobically using brain heart infusion supplemented (BHIS) agar (Brain heart infusion agar supplemented with hemin, vitamin K and L-cysteine). Lactobacillus was cultivated on MRS agar and incubated in presence of 5% CO2 for 48 hours at 37° C. Each bacterium was suspended in phosphate buffered saline (PBS) to produce a suspension with optical density that matches 0.5 McFarland standard and diluted in brain heart infusion supplemented broth (for Bifidobacterium and Bacteroides) or in MRS broth (for Lactobacillus) to achieve bacterial concentration of approximately 5×10^5 CFU/ml. Bacteria were then seeded in 96-well plates containing serial dilutions of the compounds and incubated as mentioned previously for 48 hours.
# [3] = system: Bacteroides fragilis CL07T00C01 HM-709; experiment: MIC against human normal gut microbiota; assay type: cell-based; conditions: Table 3, BHIS broth, anaerobic, 48 hours, read-out: MIC
# Description: as §3
# [4] = system: Bifidobacterium breve JCP7499 HM 1120; experiment: MIC against human normal gut microbiota; assay type: cell-based; conditions: JCP7499HM1120, Table 3, BHIS broth, anaerobic, 48 hours, read-out: MIC
# Description: as §3
# VERO cells = experiment: In vitro cytotoxicity, MTS assay; assay type: cell-based, monkey; conditions: concentration up to 128 μg/mL; two hours incubation
# Description: Toxicity assessment: Compounds AS005H, AS005J, AS004B, AS005K, AS005A and 005D were assayed (at concentrations of 64 and 128 μg/mL) against a fibroblast-like monkey kidney cell line (VERO cell) to determine the potential toxic effect in vitro. Briefly, cells were cultured in Minimum Essential Medium (MEM) supplemented with 10% fetal bovine serum (FBS), 1 mM sodium pyruvate, and penicillin-streptomycin at 37° C. with CO2 (5%). Control cells received DMSO alone at a concentration equal to that in drug-treated cell samples. The cells were incubated with the compounds (in triplicate) in a 96-well plate at 37° C. with CO2 (5%) for two hours. The assay reagent MTS 3-(4,5-dimethylthiazol-2-yl)-5-(3-carboxymethoxyphenyl)-2-(4-sulfophenyl)-2H-tetrazolium) (Promega, Madison, WI, USA) was subsequently added and the plate was incubated for four hours. Absorbance readings (at OD490) were taken using a kinetic microplate reader (Molecular Devices, Sunnyvale, CA, USA). The quantity of viable cells after treatment with each compound was expressed as a percentage of the viability of DMSO-treated control cells (average of triplicate wells±standard deviation). The toxicity data was analyzed via a two-way ANOVA, with post hoc Dunnet's multiple comparisons test (P<0.05), utilizing GraphPad Prism 6.0 (GraphPad Software, La Jolla, CA).
# Percent viable mammalian cells (measured as average absorbance ratio (test agent relative to DMSO) for cytotoxicity analysis of compounds AS005H, AS005J, AS004B, AS005K, AS005A and 005D (tested in triplicates) at 64 and 128 μg/mL against VERO cells using the MTS 3-(4,5-dimethylthiazol-2-yl)-5-(3-carboxymethoxyphenyl)-2-(4-sulfophenyl)-2H-tetrazolium) assay. Dimethyl sulfoxide (DMSO) was used as a negative control to determine a baseline measurement for the cytotoxic impact of each compound. The absorbance values represent an average of a minimum of three samples analyzed for each compound. Error bars represent standard deviation values for the absorbance values.
# [5] = system: Enterococcus faecium E417 - HM-965; experiment: MIC, broth microdilution (CLSI); assay type: cell-based
# Description: as §1, §2
# [6] = system: Enterococcus faecium Patient #2-1 - NR-31909; experiment: MIC, broth microdilution (CLSI); assay type: cell-based; conditions: Table 5
# Description: as §1, §2
# [7] = system: Enterococcus fecalis Strain SF 24397 NR31970; experiment: MIC, broth microdilution (CLSI); assay type: cell-based; conditions: Table 5
# Description: as §1, §2
# [8] = Enterococcus faecalis, S613HM334, Table 7, TSB, read-out: MIC
# [9] = Enterococcus faecalis, S613HM334, Table 1, TSB, read-out: MIC
# [10] = Enterococcus faecalis, S613HM334, Table 5, BHIB, read-out: MIC
# [11] = Enterococcus faecalis, S613HM334, Table 5, TSB, read-out: MIC
# [12] = Enterococcus faecalis, S613HM334, Table 6, TSB in presence of 4% human serum albumin, read-out: MIC
compound,measurement,setting,value
"NS(=O)(=O)c1nnc(NC(=O)C2CC2)s1 [CAI0020, N-(5-Sulfamoyl-1,3,4-thiadiazol-2-yl)cyclopropanecarboxamide]",MIC,[1]; [8],0.007 µg/mL
"CCCC(=O)Nc1nnc(S(N)(=O)=O)s1 [CAI0013, N-(5-Sulfamoyl-1,3,4-thiadiazol-2-yl)butyramide]",MIC,[2],> 64 µg/mL
same,MIC,[3],> 64 µg/mL
same,MIC,[4],> 64 µg/mL
same,"toxicity to VERO cells (percent viable cells, MTS)",VERO cells,non-toxic
"CC(C)(C)CC(=O)Nc1nnc(S(N)(=O)=O)s1 [CAI0028, 3,3-Dimethyl-N-(5-sulfamoyl-1,3,4-thiadiazol-2-yl)butanamide]",MIC,[1]; [8],0.03 µg/mL
"NS(=O)(=O)c1nnc(NC(=O)CC2CCCC2)s1 [CAI0021, 2-Cyclopentyl-N-(5-sulfamoyl-1,3,4-thiadiazol-2-yl)acetamide]",MIC,[1]; [8],0.03 µg/mL
"NS(=O)(=O)c1cc(Cl)c(Cl)c(S(N)(=O)=O)c1 [Dichlophenamide, reference compound]",MIC,"[5]; Table 5, BHIB",16 µg/mL
same,MIC,"[5]; Table 5, TSB",1 µg/mL
same,MIC,[6]; TSB,2 µg/mL
same,MIC,[7]; TSB,16 µg/mL
same,MIC,"[1]; Table 5, TSB",16 µg/mL
"CC(C)CC(=O)Nc1nnc(S(N)(=O)=O)s1 [CAI0026, 3-Methyl-N-(5-sulfamoyl-1,3,4-thiadiazol-2-yl)butanamide]",MIC,[1]; [8],0.25 µg/mL
CC(=O)NC[C@H]1CN(c2ccc(N3CCOCC3)c(F)c2)C(=O)O1 [Linezolid],MIC,[1]; [9],1 µg/mL
same,MIC,[1]; [10],1 µg/mL
same,MIC,[1]; [11],1 µg/mL
same,MIC,[1]; [8],1 µg/mL
same,MIC,[2],1 µg/mL
same,MIC,[3],2 µg/mL
same,MIC,[4],≤ 0.5 µg/mL
CCOc1ccc2nc(S(N)(=O)=O)sc2c1 [Ethoxzolamide],MIC,[1]; [10],> 128 µg/mL
same,MIC,[1]; [11],1 µg/mL
same,MIC,[1]; [12],> 256 µg/mL
CCCCCCCCCC(=O)N[C@@H](Cc1c[nH]c2ccccc12)C(=O)N[C@H](CC(N)=O)C(=O)N[C@@H](CC(=O)O)C(=O)N[C@@H]1C(=O)NCC(=O)N[C@@H](CCCN)C(=O)N[C@@H](CC(=O)O)C(=O)N[C@H](C)C(=O)N[C@@H](CC(=O)O)C(=O)NCC(=O)N[C@H](CO)C(=O)N[C@@H]([C@H](C)CC(=O)O)C(=O)N[C@@H](CC(=O)c2ccccc2N)C(=O)O[C@@H]1C [Daptomycin],MIC,"[5]; Enterococcus faecium, E417HM965, Table 5, BHIB, read-out: MIC",16 µg/mL
same,MIC,"[5]; Enterococcus faecium, E417HM965, Table 5, TSB, read-out: MIC",4 µg/mL
same,MIC,"[6]; Enterococcus faecium, BHIB, read-out: MIC",16 µg/mL
same,MIC,"[6]; Enterococcus faecium, TSB, read-out: MIC",8 µg/mL
same,MIC,"[7]; Enterococcus, BHIB, read-out: MIC",2 µg/mL
same,MIC,"[7]; Enterococcus, TSB, read-out: MIC",1 µg/mL
same,MIC,[1]; [10],2 µg/mL
same,MIC,[1]; [11],1 µg/mL
same,MIC,[1]; [12],16 µg/mL
CC(=O)/N=c1/sc(S(N)(=O)=O)nn1C [Methazolamide],MIC,[1]; [10],> 128 µg/mL
same,MIC,[1]; [11],1 µg/mL
same,MIC,[1]; [12],> 256 µg/mL
CCN[C@H]1CN(CCCOC)S(=O)(=O)c2sc(S(N)(=O)=O)cc21 [Brinzolamide],MIC,[1]; [10],> 128 µg/mL
same,MIC,[1]; [11],2 µg/mL
same,MIC,[1]; [12],> 256 µg/mL
"CCC(=O)Nc1nnc(S(N)(=O)=O)s1 [CAI0009, N-(5-Sulfamoyl-1,3,4-thiadiazol-2-yl)propionamide]",MIC,[1]; [9],2 µg/mL
same,MIC,[1]; [8],2 µg/mL
same,MIC,[2],> 64 µg/mL
same,MIC,[3],> 64 µg/mL
same,MIC,[4],> 64 µg/mL
"NS(=O)(=O)c1nnc(NC(=O)C2CCCCC2)s1 [CAI0022, N-(5-Sulfamoyl-1,3,4-thiadiazol-2-yl)cyclohexanecarboxamide]",MIC,[1]; [8],0.25 µg/mL
"CC(=O)Nc1nnc(S(C)(=O)=O)s1 [CAI0025, N-(5-(Methylsulfonyl)-1,3,4-thiadiazol-2-yl)acetamide]",MIC,[1]; [8],> 128 µg/mL
"NS(=O)(=O)c1nnc(NC(=O)C2CCC2)s1 [CAI0018, N-(5-Sulfamoyl-1,3,4-thiadiazol-2-yl)cyclobutanecarboxamide]",MIC,[1]; [8],1 µg/mL
"NS(=O)(=O)c1nnc(NC(=O)c2ccccc2)s1 [CAI0012, N-(5-Sulfamoyl-1,3,4-thiadiazol-2-yl)benzamide]",MIC,[1]; [9],4 µg/mL
same,MIC,[1]; [8],4 µg/mL
same,MIC,[2],> 64 µg/mL
same,MIC,[3],> 64 µg/mL
same,MIC,[4],> 64 µg/mL
"NS(=O)(=O)c1nnc(NC(=O)CC2CCCCC2)s1 [CAI0029, 2-Cyclohexyl-N-(5-sulfamoyl-1,3,4-thiadiazol-2-yl)acetamide]",MIC,[1]; [8],0.015 µg/mL
"CCCCCCC(=O)Nc1nnc(S(N)(=O)=O)s1 [CAI0027, N-(5-Sulfamoyl-1,3,4-thiadiazol-2-yl)heptanamide]",MIC,[1]; [8],0.007 µg/mL
"NS(=O)(=O)c1nnc(NC(=O)C2CCCC2)s1 [CAI0023, N-(5-Sulfamoyl-1,3,4-thiadiazol-2-yl)cyclopentanecarboxamide]",MIC,[1]; [8],0.5 µg/mL
